According to patent US12459929B2 (Carmot Therapeutics Inc., priority 2021, dated 2025):

How the values were obtained:
human GLP-1 receptor = target: T1, human GLP-1 receptor (Homo sapiens, UniProt P43220); assay: GLP-1R cAMP assay (HitHunter cAMP accumulation); format: cell-based; conditions: CHO cells stably overexpressing human GLP-1 receptor, 30 min, 20-point dose response in triplicate
T1 construct: expressed in transfected cells
Procedure: CAMP accumulation was measured in Chinese hamster ovary (CHO) cells stably overexpressing the human GLP-1 receptor using the HitHunter CAMP Assay for Small Molecules Kit (Eurofins). Briefly, cells were grown in Ham's F12 Nutrient Mix with 10% FBS, and lifted with Cell Dissociation Buffer, Enzyme free, PBS based (ThermoFisher). […] The anti-cAMP antibody reagent was then added to cells at a 1:2 ratio and 5 μL of mixture was seeded in 384-well small volume white assay plates, at 10,000 cells/well. Cells were then treated with 50 nL compound using an ECHO 550 acoustic dispenser (Labcyte) in a 20-point dose response format in triplicate for 30 min. Cells were then lysed, and detection reagents added according to the manufacturer's protocol. After overnight incubation, luminescence was measured using a Perkin Elmer Envision plate reader. Dose response curves were analyzed using GraphPad Prism 9.0.

[1] = tested on: cynomolgus monkeys (Macaca fascicularis); assay: Intravenous glucose tolerance test (IVGTT) in cynomolgus monkeys; format: in vivo; conditions: fasted, test article 6 mg/mL IV bolus 1-6 min before IV glucose 0.5 g/kg, plasma insulin 0-60 min, FIG. 1
Procedure: Intravenous Glucose Tolerance Test (IVGTT) in Cynomolgus Monkeys
Aged ([…]) cynomolgus monkeys (Macaca fascicularis; N=4-5/test article) were fasted overnight and anesthetized with ketamine prior to the intravenous glucose tolerance test (IVGTT). The test articles were formulated at 6 mg/mL in vehicle (5% polyethylene glycol 400: 95% (12% (w/v) sulfobutylether-β-cyclodextrin in deionized water) (v/v)]) and administered by intravenous bolus into a peripheral vein 1-6 minutes prior to the IVGTT. The IVGTT was initiated by administration of an IV bolus of glucose (0.5 g/kg as a 50% glucose solution). Blood samples were collected from a peripheral vein 0, 1, 3, 5, 10, 20, 40 and 60 minutes upon completion of the IV bolus glucose injection. The blood samples were collected directly into potassium ethylene diamine tetra-acetic acid tubes and plasma separated by centrifugation at 2,500 g for 10 minutes within 30 minutes of collection. The plasma from all time points was analyzed for insulin concentrations (μU/mL) using a Cobas e411 Immunology analyzer. Insulin area-under-the-curve (AUC) was calculated using GraphPad Prism software (v 9).

T1 sequence (P43220 24-463): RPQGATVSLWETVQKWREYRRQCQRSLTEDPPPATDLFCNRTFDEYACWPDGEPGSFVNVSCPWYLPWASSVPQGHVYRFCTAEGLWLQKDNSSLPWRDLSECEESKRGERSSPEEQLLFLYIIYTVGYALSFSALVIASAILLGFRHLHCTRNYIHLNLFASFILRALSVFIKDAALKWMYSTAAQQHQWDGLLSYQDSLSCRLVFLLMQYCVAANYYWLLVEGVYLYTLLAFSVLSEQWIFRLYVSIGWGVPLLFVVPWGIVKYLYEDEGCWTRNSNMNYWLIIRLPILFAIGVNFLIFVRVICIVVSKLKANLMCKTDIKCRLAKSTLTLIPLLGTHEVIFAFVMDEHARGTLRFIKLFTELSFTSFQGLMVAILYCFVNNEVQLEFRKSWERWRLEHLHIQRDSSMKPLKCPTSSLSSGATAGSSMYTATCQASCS

EC50 (human GLP-1 receptor)	SMILES	insulin secretion / insulin AUC [1]
< 0.05 µM	CCn1cncc1Cn1c(CN2CCC([C@@H](F)c3cccc(COc4ccc(Cl)cc4C#N)c3)CC2)nc2ccc(C(=O)O)cc21 (single isomer, unassigned) [Example 260]	
< 0.05 µM	CCn1cncc1Cn1c(CN2CCC([C@H](F)c3cccc(COc4ccc(Cl)cc4C#N)c3)CC2)nc2ccc(C(=O)O)cc21 (single isomer, unassigned) [Example 263]	
	CCn1cncc1Cn1c(CN2CCC(Oc3ccnc(COc4ccc(Cl)cc4C#N)c3)CC2)nc2ccc(C(=O)O)cc21 [Compound 171, 2-{[4-({2-[(4-chloro-2-cyanophenoxy)methyl]pyridin-4-yl}oxy)piperidin-1-yl]methyl}-1-[(1-ethyl-1H-imidazol-5-yl)methyl]-1H-1,3-benzodiazole-6-carboxylic acid]	an increase in insulin secretion was observed
< 0.05 µM	O=C(O)c1ccc2nc(CN3CCC(Oc4cccc(COc5ccc(F)cc5Cl)c4)CC3)n(C[C@@H]3CCO3)c2c1 [Compound 207]	
	O=C(O)c1ccc2nc(CN3CCC(Oc4ccnc(COc5ccc(F)cc5Cl)n4)CC3)n(C[C@@H]3CCO3)c2c1 [Compound 326]	an increase in insulin secretion was observed
	O=C(O)c1ccc2nc(CN3CCC(Oc4ccnc(COc5ccc(C(F)(F)F)cc5F)n4)CC3)n(C[C@@H]3CCO3)c2c1 [Compound 338]	an increase in insulin secretion was observed
< 0.05 µM	CN(c1ccnc(COc2ccc(Cl)cc2F)n1)C1CCN(Cc2nc3ccc(C(=O)O)cc3n2C[C@@H]2CCO2)CC1 [Compound 382, 2-{[4-({2-[(4-chloro-2-fluorophenoxy)methyl]pyrimidin-4-yl}(methyl)amino)piperidin-1-yl]methyl}-1-{[(2S)-oxetan-2-yl]methyl}-1H-1,3-benzodiazole-6-carboxylic acid]	
	CCn1cncc1Cn1c(CN2CCC(Oc3ccnc(COc4ccc(Cl)cc4Cl)c3)CC2)nc2ccc(C(=O)O)cc21 [Example 145, 2-((4-((2-((2,4-Dichlorophenoxy)methyl)pyridin-4-yl)oxy)piperidin-1-yl)methyl)-1-((1-ethyl-1H-imidazol-5-yl)methyl)-1H-benzo[d]imidazole-6-carboxylic acid]	an increase in insulin secretion was observed
	C[C@H]1C[C@@H](Oc2ccnc(COc3ccc(C#N)cc3F)n2)CCN1Cc1nc2ccc(C(=O)O)cc2n1C[C@@H]1CCO1 [Example 313, 2-(((2S,4S)-4-((2-((4-Cyano-2-fluorophenoxy)methyl)pyrimidin-4-yl)oxy)-2-methylpiperidin-1-yl)methyl)-1-(((S)-oxetan-2-yl)methyl)-1H-benzo[d]imidazole-6-carboxylic acid]	an increase in insulin secretion was observed
	C[C@H]1C[C@@H](Oc2ccnc(COc3ccc(F)cc3C#N)n2)CCN1Cc1nc2ccc(C(=O)O)cc2n1C[C@@H]1CCO1 [Example 355, 2-(((2S,4S)-4-((2-((2-cyano-4-fluorophenoxy)methyl)pyrimidin-4-yl)oxy)-2-methylpiperidin-1-yl)methyl)-1-(((S)-oxetan-2-yl)methyl)-1H-benzo[d]imidazole-6-carboxylic acid]	an increase in insulin secretion was observed
< 0.05 µM	O=C(O)c1ccc2nc(CN3CCC(Nc4ccnc(COc5ccc(Cl)cc5F)n4)CC3)n(C[C@@H]3CCO3)c2c1 [Example 381, (S)-2-((4-((2-((4-Chloro-2-fluorophenoxy)methyl)pyrimidin-4-yl)amino)piperidin-1-yl)methyl)-1-(oxetan-2-ylmethyl)-1H-benzo[d]imidazole-6-carboxylic acid]	

SMILES	EC50 (human GLP-1 receptor)	insulin secretion / insulin AUC [1]
N#Cc1ccc(OCc2nccc(OC3C[C@H]4CC[C@@H](C3)N4Cc3nc4ccc(C(=O)O)cc4n3C[C@@H]3CCO3)n2)c(F)c1 (single isomer, unassigned) [Compound 488]	0.05 to 0.5 µM	
